In patent US7589121B2, “Use of furan alkyls for preparing a drug for treating obesity and cosmetically treating overweight” (priority 2004, dated 2009):

Experiments:
ACO (target PPARα) = test: Analysis of mRNAs in the liver (Q-RT-PCR): ACO; format: in vivo, mice; conditions: TZD
Method: (§1) In the liver, the mRNA expressions of 8 genes were determined in 5 mice of each group using real-time Q-RT-PCR analysis.

[1] = tested on: mice fattened on a high fat/high sucrose diet (HF/HS); test: Weight gain / weight of mice on HF/HS diet; format: in vivo; conditions: curative group; TZD added to HF/HS food
Method: We used adult mice (aged 6 weeks) of masculine gender fattened on a high fat/high sucrose diet (HF/HS). Feeding with the HF/HS diet began on mice aged 6 weeks and continued throughout the period of the study. The study was conducted along 2 axes: • prevention: the product was administered as soon as feeding began with the HF/HS diet; • management (curative): the product was administered 12 weeks after the start of the HF/HS diet. Total treatment time (preventive and curative): 23 weeks.
Each experimental group comprised 10 mice.

[2] = tested on: GSH-S-transferase (target PXR); test: Analysis of mRNAs in the liver (Q-RT-PCR): GSH-S-transferase; format: in vivo, mice; conditions: TZD
Method: as §1

PEPCK (target PPARγ) = test: Analysis of mRNAs in the liver (Q-RT-PCR): PEPCK; format: in vivo, mice; conditions: TZD
Method: as §1

[3] = tested on: ME, FAS, ACC (fatty acid synthesis); test: Analysis of mRNAs in the liver (Q-RT-PCR): ME, FAS, ACC; format: in vivo, mice; conditions: TZD
Method: as §1

CYP7A1 = test: Analysis of mRNAs in the liver (Q-RT-PCR): CYP7A1; format: in vivo, mice; conditions: TZD
Method: as §1

[4] = tested on: PGC-1 (mitochondria biogenesis); test: Analysis of mRNAs in the muscles and BAT: PGC-1; format: in vivo, mice; conditions: TZD
Method: In the brown adipose tissue (BAT) and in the muscles, the mRNA expression of 3 genes was determined in 5 mice of each group by real-time Q-RTR-PCR analysis.

In the case of `CN(CCOc1ccc(CC2SC(=O)NC2=O)cc1)c1ccccn1` (stereo not shown) [TZD, Rosiglitazone], the “ACO (target PPARα) mRNA, liver” value (ACO (target PPARα)) is reported as “⇑”, the “weight loss of overweight mice” value [1] is reported as “did not cause the overweight mice to lose weight” and the “GSH-S-transferase (target PXR) mRNA, liver” value [2] is reported as “⇑”. The “PEPCK (target PPARγ) mRNA, liver” value (PEPCK (target PPARγ)) was “⇑”, the “ME, FAS, ACC (fatty acid synthesis) mRNA, liver” value [3] was “⇑⇑” and the “CYP7A1 (conversion oxysterol into biliary acids) mRNA, liver” value (CYP7A1) was “⇑⇑”. The “PGC-1 (mitochondria biogenesis) mRNA, MUSCLE/BAT” value [4] was “⇑ (muscle)”.
